This is an account of results in ChEMBL document CHEMBL4613212, “Insights of synthetic analogues of anti-leprosy agents” (Bioorg Med Chem, 2019).

Data set [1] has as its system Mycolicibacterium smegmatis. Briefly: Antimycobacterial activity against Mycobacterium smegmatis mc2 155 incubated for 2 days by spectrophotometric based assay. In kind it is functional. The following applies: MC2 155, 48 h.
For data set [2], the system named is Escherichia coli. Briefly: Antimicrobial activity against Escherichia coli ATCC 25922 by broth microdilution assay. It counts as functional.
Data set [3] concerns Enterococcus faecalis. Briefly: Antimicrobial activity against Enterococcus faecalis ATCC 29212 by broth microdilution assay. It counts as functional.
Data set [4] deals with Escherichia coli. In words: Antimicrobial activity against Escherichia coli ATCC 35218 by broth microdilution assay. It counts as functional.
Data set [5] deals with Mycobacterium tuberculosis. In words: Antitubercular activity against Mycobacterium tuberculosis H37Rv ATCC 27294 incubated for 7 days by microplate alamar blue assay. It counts as functional. The following applies: H37Rv ATCC 27294, 168 h.
Data set [6] deals with Enterococcus faecalis. Briefly: Antimicrobial activity against Enterococcus faecalis ATCC 51922 by broth microdilution assay. In kind it is functional. In general terms: Broth dilution looks for growth in wells or tubes with falling amounts of substance.
A further data set concerns Staphylococcus aureus. Briefly: Antimicrobial activity against Staphylococcus aureus ATCC 25923 by broth microdilution assay. In kind it is functional.
A further data set deals with Pseudomonas aeruginosa. In words: Antimicrobial activity against Pseudomonas aeruginosa ATCC 27853 by broth microdilution assay. In kind it is functional.
For the next data set, the system named is Klebsiella pneumoniae. Briefly: Antimicrobial activity against Klebsiella pneumoniae 700603 by broth microdilution assay. In kind it is functional.
The next data set relates to Listeria monocytogenes. Briefly: Antimicrobial activity against Listeria monocytogenes ATCC 1911 by broth microdilution assay. In kind it is functional.
The subject of data set [7] is Mycolicibacterium smegmatis. In words: Antimicrobial activity against Mycobacterium smegmatis ATCC 607. Conditions: Mycolicibacterium smegmatis, ATCC 607; read-out: MIC. It counts as functional.
Data set [8] has as its system Mycolicibacterium smegmatis. In words: Inhibition of Mycobacterium smegmatis ATCC 607 dihydrofolic reductase assessed as ratio of Km to Ki.
Data set [9] is described as follows: Inhibition of Mycobacterium smegmatis ATCC 607 dihydrofolic reductase. The arrangement: species or system Mycolicibacterium smegmatis.
Data set [10] in a line: Half life in rat at 400 mg/kg, sc administered as single dose. In kind it is ADME, organism-based. The following applies: in vivo.
The test system of another data set is Plasmodium berghei. Briefly: Antimalarial activity against Plasmodium berghei infected in albino mouse assessed survival against infection at 400 mg/kg, sc administered as single dose. It counts as functional.
The next data set concerns Mycobacterium leprae. In words: Anti-leprotic activity against Mycobacterium leprae infected in albino mouse assessed survival against infection at 400 mg/kg, sc administered 58 days post-infection and subsequent compound dosing at 200 mg/kg at 0.5, 1 or 2 months interval. In kind it is functional.
Data set [11] is described as follows: Drug excretion in rat urine at 400 mg/kg, sc administered as single dose measured after 30 days. In kind it is ADME, organism-based. Conditions: read-out: Drug excretion.
The test system of the next data set is Mycolicibacterium vaccae. Briefly: Antimicrobial activity against Mycobacterium vaccae incubated for 24 hrs by broth microdilution assay. In kind it is functional.
Data set [12] has as its system Mycolicibacterium smegmatis. Briefly: Antimicrobial activity against Mycobacterium smegmatis incubated for 24 hrs by broth microdilution assay. In kind it is functional.
Data set [13] relates to Mycolicibacterium fortuitum. In words: Antimicrobial activity against Mycobacterium fortuitum incubated for 24 hrs by broth microdilution assay. In kind it is functional.
Another data set concerns Mycolicibacterium aurum. In words: Antimicrobial activity against Mycobacterium aurum incubated for 24 hrs by broth microdilution assay. It counts as functional.
A further data set deals with Monocyte. In words: Antiinflammatory activity in human monocytes assessed as inhibition of LPS-induced TNFaplha production at 50 uM preincubated for 15 mins followed by LPS addition and measured after 4 hrs by ELISA relative to control. It counts as functional.
Data set [14] in a line: Cytotoxicity against LPS-induced human monocytes assessed as cell viability at 50 uM by tryphan blue staining based assay relative to control. The arrangement: species or system Monocyte. Conditions: read-out: Activity.

Converted amounts (≈) assume the structure as drawn. Bounds are passed on as bounds.

The term MIC99 denotes an inhibitory concentration at the 99% level, which refers to growth in some studies and to a panel of isolates in others. High values mean weaker potency, low ones greater potency. With `CCCCCCCCC(CCC1CCCO1)C(=O)O` (stereo not given), the MIC99 in data set [1] came to 9600 µM (≈ 2600 µg/mL).

A word on the MIC: it is the lowest concentration found to suppress growth. In the case of `CC(C)c1ccc(/C=N/NC(=S)Nc2ccc(C(F)(F)F)cc2)cc1`, the MIC against Escherichia coli [2] stood at 400 µg/mL (≈ 1090 µM); against Enterococcus faecalis [3], 400 µg/mL (≈ 1090 µM); with Escherichia coli [4] it was 800 µg/mL (≈ 2190 µM); in [5] it was 200 µg/mL (≈ 547 µM); against Enterococcus faecalis [6] it was 400 µg/mL (≈ 1090 µM); with Staphylococcus aureus, 400 µg/mL (≈ 1090 µM). Besides, the minimum inhibitory concentration (MIC) with Pseudomonas aeruginosa, in the data set with Klebsiella pneumoniae and with Listeria monocytogenes was 400 µg/mL (≈ 1090 µM) throughout.

Usually Ki stands for a dissociation constant, usually derived from enzyme kinetics or from competition with a known ligand. As to `COc1cc(Cc2cnc3nc(N)nc(N)c3n2)cc(OC)c1OC`, in [7], the MIC stood at 347 µM (≈ 119 µg/mL). Also, the Ratio in data set [8] amounted to 230. For the same compound, the Ki in data set [9] turned out to be 5 nM.

In general, half-life refers to the time in which the quantity being followed falls by half. Read a low half-life as rapid decline. Compound `CC(=O)N(C)c1ccc(S(=O)(=O)c2ccc(N(C)C(C)=O)cc2)cc1` gave a half-life in [10] of 10 days. For the same compound, the values for the Survival in the data set on Plasmodium berghei and with Mycobacterium leprae were 9 weeks and >8 weeks, respectively. Moreover, the dose excreted at 720 h in [11] is 85%.

In the case of `Oc1ccc(/C=N/NC(=S)Nc2ccc(C(F)(F)F)cc2)cc1`, the MIC (in the data set on Escherichia coli [2]; with Enterococcus faecalis [3]; against Escherichia coli [4]; in data set [5]; in the data set on Enterococcus faecalis [6]; against Staphylococcus aureus) was 400 µg/mL (≈ 1180 µM) throughout. For the same compound, the MIC in the data set on Pseudomonas aeruginosa, in the data set with Klebsiella pneumoniae and against Listeria monocytogenes was 400 µg/mL (≈ 1180 µM) each time.

With `N#Cc1cc([N+](=O)[O-])cnc1SC(=S)N1CCCCC1`, the MIC came out at 1.56 µg/mL (≈ 5.06 µM) against Mycolicibacterium vaccae, 3.12 µg/mL (≈ 10.1 µM) in data set [12], 1.56 µg/mL (≈ 5.06 µM) in data set [13] and 1.56 µg/mL (≈ 5.06 µM) in the data set with Mycolicibacterium aurum.

Turning to `N#Cc1ccc(/C=N/NC(=S)Nc2ccc(C(F)(F)F)cc2)cc1`, the MIC against Escherichia coli [2] worked out at 400 µg/mL (≈ 1150 µM); against Enterococcus faecalis [3], 200 µg/mL (≈ 574 µM); in the data set on Escherichia coli [4], 400 µg/mL (≈ 1150 µM); in [5], 200 µg/mL (≈ 574 µM); in the data set on Enterococcus faecalis [6], 400 µg/mL (≈ 1150 µM); in the data set on Staphylococcus aureus it was 400 µg/mL (≈ 1150 µM). In addition, the minimal inhibitory concentration (MIC) in the data set on Pseudomonas aeruginosa, with Klebsiella pneumoniae and against Listeria monocytogenes was 400 µg/mL (≈ 1150 µM) each time.

Consider `CC(C)CCc1cnc2nc(N)nc(N)c2n1`, for which, in [7], the MIC was 775 µM (≈ 180 µg/mL). In data set [8], the Ratio is 4100. The compound further yielded an inhibitory constant (Ki) in data set [9] of 1 nM.

Take `CC(=O)Nc1ccc(S(=O)(=O)c2ccc(N(C)C(C)=O)cc2)cc1`: in data set [10], the half-life is 27 days. For the same compound, the Survival in the data set on Plasmodium berghei is listed as 6 weeks; with Mycobacterium leprae, >8 weeks. The dose excreted at 720 h in data set [11] was 44%.

Regarding `FC(F)(F)c1ccc(NC(=S)N/N=C/c2ccc(Cl)cc2)cc1`, the MIC (against Escherichia coli [2]; with Enterococcus faecalis [3]; against Escherichia coli [4]; in data set [5]; against Enterococcus faecalis [6]; against Staphylococcus aureus) was 400 µg/mL (≈ 1120 µM) throughout. Moreover, the MIC against Pseudomonas aeruginosa is 400 µg/mL (≈ 1120 µM); against Klebsiella pneumoniae it was 400 µg/mL (≈ 1120 µM); in the data set with Listeria monocytogenes, 800 µg/mL (≈ 2240 µM).

Regarding `CCCCCc1cnc2nc(N)nc(N)c2n1`, the minimal inhibitory concentration (MIC) in data set [7] was 862 µM (≈ 200 µg/mL). Also, the Ratio in data set [8] was found to be 3420. Besides, the Ki in data set [9] was 1.2 nM.

In the case of `Cc1cnc2nc(N)nc(N)c2n1`, the minimum inhibitory concentration (MIC) in [7] was > 568 µM. Moreover, in data set [8], the Ratio worked out at 0.8. Besides, in data set [9], the affinity corresponds to a Ki of 5100 nM.

The inhibition is the drop in the measured response relative to a control, in per cent. On to `O=C1c2c(F)c(F)c(F)c(F)c2C(=O)N1c1cnc(O)nc1O`, for which the inhibition at 50 µM in the data set on Monocyte is < 10%. The viability at 50 µM in [14] was found to be 95%.

On to `O=C1c2c(F)c(F)c(F)c(F)c2C(=O)N1c1cn(-c2ccccc2)c(=O)[nH]c1=O`, for which, in the data set on Monocyte, the inhibition at 50 µM is < 10%. Besides, in data set [14], the viability at 50 µM amounted to 95%.

Regarding `O=C1c2c(F)c(F)c(F)c(F)c2C(=O)N1c1ccc(F)c(F)c1`, the inhibition at 50 µM in the data set with Monocyte was < 10%. The viability at 50 µM in data set [14] is 74%.

As to `O=C1c2ccccc2C(=O)N1c1ccc(S(=O)(=O)Nc2ccncn2)cc1`, in data set [1], the MIC99 is 2300 µM (≈ 875 µg/mL).

Turning to `CCCCc1cnc2nc(N)nc(N)c2n1`, in data set [7], the minimal inhibitory concentration (MIC) was 917 µM (≈ 200 µg/mL). Moreover, in data set [8], the Ratio was determined as 4100. Further, the Ki in [9] turned out to be 1 nM.

As for `Nc1nc(N)c2nc(Cc3ccccc3)cnc2n1`, in data set [7], the MIC was > 794 µM. Moreover, the Ratio in data set [8] is 4560. Moreover, the Ki in [9] turned out to be 0.9 nM.

Turning to `O=C1c2ccccc2C(=O)N1c1ccc(S(=O)(=O)Nc2cnccn2)cc1`, the MIC99 in data set [1] was 6800 µM (≈ 2590 µg/mL).
